Laboratory results published in patent US9511080B2, “Okadaella gastrococcus and cancer” (Okada Medical Services Pty Ltd, priority 2009, dated 2016).

Columns and labels:
[1] = tested on: Okadaella gastrococcus (Og) isolates; assay: In vitro antibiotic sensitivity of Og (E-tests and diffusion disc tests); type: cell-based; settings: for Og can be treated using antibiotic (in vitro assays): 25 Og isolates from gastric mucosal biopsy specimens
Method: Twenty-five Og isolates were obtained from gastric mucosal biopsy specimens. E-tests and diffusion disc tests were performed under microaerophilic condition (Oxygen 5%, CO2 10%, and Nitrogen 85%) utilizing. 5% horse blood agar, except metronidazole which was tested under anaerobic condition. Antibiotic sensitivity was read 72 hours after incubation. Randomly selected isolates were also examined under TEM to confirm the ultrastructure of Og. Results: Og was sensitive to various antibiotics, in particular to the penicillins, the cephalosporins, the quinolones, and chloramphenicol.

[2] = tested on: intestinal metaplasia of the gastric mucosa; settings: co-administered with Hp eradication therapy (Walker, 2003); cited from earlier work

Structure (SMILES)	Og can be treated using antibiotic (in vitro assays) [1]	Effect on intestinal metaplasia of the gastric mucosa [2]	Antibiotic sensitivity of Og ([1]; E-tests and diffusion disc tests, microaerophilic, 5% horse blood agar, read 72 hours after incubation)
CO/N=C(\C(=O)N[C@@H]1C(=O)N2C(C(=O)O)=C(COC(C)=O)CS[C@H]12)c1csc(N)n1 [cefotaxime]	can be treated		
COc1c(N2CCNC(C)C2)c(F)cc2c(=O)c(C(=O)O)cn(C3CC3)c12 (stereo not shown) [gatifloxacin]	can be treated		
O=C(O)c1cn(C2CC2)c2cc(N3CCNCC3)c(F)cc2c1=O [ciprofloxacin]	can be treated		
O=C1O[C@H]([C@@H](O)CO)C(O)=C1O [ascorbic acid]		significantly resolved the intestinal metaplasia	
CC1(C)S[C@@H]2[C@H](NC(=O)[C@H](N)c3ccccc3)C(=O)N2[C@H]1C(=O)O [ampicillin]	can be treated		
O=C(N[C@H](CO)[C@H](O)c1ccc([N+](=O)[O-])cc1)C(Cl)Cl [chloramphenicol]	can be treated		sensitive
